Assay results from patent publication US8541379B2 (Ajinomoto Co., Inc., priority 2009, dated 2013).
Marks after values point to notes of the source that are not given here.

Experiments:
Type in all cases: in vivo, human
[1] = Quantitative sensory evaluation test of kokumi-imparting activity; details: n=4
Method: This quantitative sensory evaluation test was carried out according to the following procedures: The intensity of the kokumi-imparting activity observed for each test compound was determined as a value observed when blending 0.00001 to 0.5 g/dL of the corresponding test compound with the distilled water containing sodium glutamate (0.05 g/dL), inosinic acid monophosphate (0.05 g/dL), and sodium chloride (0.5 g/dL). […] The evaluation criteria are assumed to be as follows: control: 0 point; strong: 3 points; very strong: 5 points. Moreover, to clarify the criteria, the initial taste and the middle/after taste of γ-Glu-Val-Gly were set at 3.0 points, respectively. The scoring or rating was carried out using the method of line scale and more specifically, it was carried out by writing each corresponding score on a straight line on which points corresponding to −5˜0˜5 had been indicated. The panelists used in this test were defined to be persons who had been engaged in the development of seasonings for foods over not less than one year of the cumulative time period and who could judge that the difference in the titer between γ-Glu-Cys-Gly and γ-Glu-Val-Gly added to a solution having umami/salty taste is about 10 times (while confirming the ability of these persons at regular intervals). The evaluation was carried out at n (the number of panelists used)=4. The term “initial taste” means the taste which develops from 0 to 2 seconds after the sample is placed in the panelist's mouth, while the term “middle/after taste” means the taste which develops thereafter.
In addition, γ-Glu-Val-Gly, γ-Glu-Cys, γ-Glu-Val, γ-Glu-Ala and γ-Glu-Ser were likewise inspected for their kokumi-imparting effect according to the same procedures used above.

[2] = Paired comparison sensory test, solution of tomato catsup; details: 33.3% tomato catsup solution, N=9, significant level of 1%
Method: More specifically, the sensory evaluation test was carried out according to the following procedures: Commercially available tomato catsup for popular use was dispersed in hot water in a concentration of 33.3% by mass to thus form a solution of tomato catsup. This solution was admixed with γ-Glu-Nva, γ-Glu-Cys-Gly, or γ-Glu-Abu as a test compound. According to the paired comparison test method (pair test), the panelists were requested to comparatively evaluate the following three samples and to judge whether “any of them was preferred or favorable since it could enhance the flavor and taste of the solution of tomato catsup without changing the balance between them”: (1) 0.02% by mass of γ-Glu-Cys-Gly whose kokumi-imparting activity was identical to 0.0004% by mass of γ-Glu-Nva; (2) 0.0004% by mass of γ-Glu-Abu, the amount of which was identical to 0.0004% by mass of γ-Glu-Nva; (3) 0.003% by mass of γ-Glu-Abu whose kokumi-imparting activity was identical to that observed for 0.0004% by mass of γ-Glu-Nva. The panelists used in this test were persons who had been engaged in the development of seasonings for foods over not less than one year of the cumulative time period and who could judge that the difference in the titer between γ-Glu-Cys-Gly and γ-Glu-Val-Gly added to a solution having umami/salty taste was about 10 times (while confirming the ability of these persons at regular intervals). The evaluation was carried out at N (the number of panelists used)=9.
However, the results observed for tomato catsup are shown in Table 6 as the typical example thereof.

[3] = Paired comparison sensory test, solution of miso; details: 10.0% miso solution, N=9
Method: More specifically, the sensory evaluation test was carried out according to the following procedures: Commercially available miso (ingredients: soybeans and barley) for popular use was dispersed in hot water in a concentration of 10.0% by mass to thus form a solution of miso. This solution was admixed with γ-Glu-Nva, γ-Glu-Cys-Gly, or γ-Glu-Abu as a test compound. According to the paired comparison test method (pair test), the panelists were requested to comparatively evaluate the following three samples and to judge whether “any of them was preferred or favorable since it could enhance the flavor and taste of the solution of miso without changing the balance between them”: (1) 0.02% by mass of γ-Glu-Cys-Gly whose kokumi-imparting activity was identical to 0.0004% by mass of γ-Glu-Nva; (2) 0.0004% by mass of γ-Glu-Abu, the amount of which was identical to 0.0004% by mass of γ-Glu-Nva; (3) 0.003% by mass of γ-Glu-Abu whose kokumi-imparting activity was identical to that observed for 0.0004% by mass of γ-Glu-Nva. The panelists used in this test were persons who had been engaged in the development of seasonings for foods over not less than one year of the cumulative time period and who could judge that the difference in the titer between γ-Glu-Cys-Gly and γ-Glu-Val-Gly added to a solution having umami/salty taste is about 10 times (while confirming the ability of these persons at regular intervals). The evaluation was carried out at N (the number of panelists used)=9.

CCC[C@H](NC(=O)CC[C@H](N)C(=O)O)C(=O)O [γ-Glu-Nva, γ-L-glutamyl-L-norvaline]
Sensory Evaluation Profile ([1]; 0.0001 g/dL in umami/salty solution): Mainly the initial and middle tastes
Intensity of kokumi, Middle/After Taste ([1]; 0.0001 g/dL in water with MSG 0.05, IMP 0.05, NaCl 0.5 g/dL): 2.8 points
Intensity of kokumi, Initial Taste ([1]; 0.0001 g/dL in water with MSG 0.05, IMP 0.05, NaCl 0.5 g/dL, scale control 0, strong 3, very strong 5): 3.6 points
No. of Panelists who judged γ-Glu-Nva rather preferred ([2]; 0.0004 wt % γ-Glu-Nva vs 0.0004 wt % γ-Glu-Abu): 9/9**
No. of Panelists who judged γ-Glu-Nva rather preferred ([2]; 0.0004 wt % γ-Glu-Nva vs 0.003 wt % γ-Glu-Abu): 9/9**
No. of Panelists who judged γ-Glu-Nva rather preferred ([2]; 0.0004 wt % γ-Glu-Nva vs 0.02 wt % γ-Glu-Cys-Gly): 9/9**
No. of Panelists who judged γ-Glu-Nva rather preferred ([3]; 0.0004 wt % γ-Glu-Nva vs 0.0004 wt % γ-Glu-Abu, significant level of 1%): 9/9***
No. of Panelists who judged γ-Glu-Nva rather preferred ([3]; 0.0004 wt % γ-Glu-Nva vs 0.003 wt % γ-Glu-Abu, significant level of 1%): 9/9***
No. of Panelists who judged γ-Glu-Nva rather preferred ([3]; 0.0004 wt % γ-Glu-Nva vs 0.02 wt % γ-Glu-Cys-Gly, significant level of 5%): 8/9**
